From US9247759B2, “Identification of human T2R receptors that respond to bitter compounds that elicit the bitter taste in compositions, and the use thereof in assays to identify compounds that inhibit (block) bitter taste in compositions and use thereof” (SENOMYX, INC., priority 2007, dated 2016) come the findings set out here.

As a reminder, the pIC50 is the IC50 on a negative log10 scale, so that one unit is a factor of ten.

The subject of one experiment is hT2R55. Briefly: hT2R panel inhibition, transient HEK293 G16g44, agonist Cinchonine 150 μM. In kind it is cell-based, human. The note with it: compound at 25 μM; for screening result against bitter receptor 55: receptor activated to EC80 with the corresponding agonist. The procedure: (§1) Specifically, in order to evaluate the inhibitory selectivity of the Compound C compound, this compound was tested against 22 human T2Rs which were deorphaned by Senomyx. These receptors and the bitter ligands that activate these human T2Rs are reported in earlier patent applications which are incorporated by reference herein. These 22 human T2Rs are hT2R1, 3, 4, 5, 7, 8, 9, 10, 13, 14, 16, 44, 51, 54, 55, 61, 63, 64, 65, 67, 71 and 75. The amino acid and nucleic acid sequences of all of these T2Rs may be found in these earlier patent applications. These human T2Rs were each individually transiently transfected into HEK293 cells that stably express the promiscuous G protein G16g44 and functional assays were effected using these receptors as disclosed in these same patent applications. […] The ligands were used at EC80 concentration levels. The list of bitter ligands utilized and the tested ligand concentrations are contained in Table 5 of this example.
(§2) Relating to the foregoing, FIG. 5 contains experimental results wherein Compound C was tested with different agonist compounds. The inhibition activity is represented by the reduction of receptor activity in the presence of Compound C. […] These 13 hT2Rs are hT2R3, 7, 10, 14, 16, 44, 51, 55, 61, 63, 64, 65, and 71.

A further experiment concerns the target hT2R61 (Homo sapiens (Human), UniProt P59537). Put plainly: hT2R panel inhibition, transient HEK293 G16g44, agonist Aristolochic Acid 25 nM. In kind it is cell-based. The note with it: HEK293, compound at 25 μM; receptor activated to EC80 with the corresponding agonist; read-out: screening result against bitter receptor 61. The method, boiled down:
(§3)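 Agonist concentrations were set at EC80 for each receptor. Activity was compared with and without the test compound, and the reduction recorded as inhibition, across 22 individually transfected human T2Rs.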

The target of the next experiment is hT2R5 (Homo sapiens (Human), UniProt Q9NYW4). Put plainly: hT2R panel inhibition, transient HEK293 G16g44, agonist Picoline 10 mM. In kind it is cell-based. The note with it: HEK293, compound at 25 μM; receptor activated to EC80 with the corresponding agonist; read-out: screening result against bitter receptor 5. The procedure:
as §1, §2

The target in a further experiment is hT2R64 (Homo sapiens (Human), UniProt P59538). Put plainly: hT2R panel inhibition, transient HEK293 G16g44, agonist Aristolochic Acid 1 μM. In kind it is cell-based. The following applies: HEK293, compound at 25 μM; receptor activated to EC80 with the corresponding agonist; read-out: screening result against bitter receptor 64. The gist of the method: as §3
Chain of hT2R64 (P59538 whole entry): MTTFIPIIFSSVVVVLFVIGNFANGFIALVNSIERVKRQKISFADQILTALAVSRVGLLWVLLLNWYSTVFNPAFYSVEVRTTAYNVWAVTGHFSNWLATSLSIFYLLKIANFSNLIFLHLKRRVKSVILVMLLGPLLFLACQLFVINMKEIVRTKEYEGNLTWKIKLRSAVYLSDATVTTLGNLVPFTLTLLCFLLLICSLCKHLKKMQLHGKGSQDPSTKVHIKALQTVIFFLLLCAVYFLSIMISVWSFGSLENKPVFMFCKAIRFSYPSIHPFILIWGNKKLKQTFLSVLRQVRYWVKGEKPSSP
The next experiment deals with hT2R44. Briefly: hT2R panel inhibition, transient HEK293 G16g44, agonist Denatonium 0.5 μM. In kind it is cell-based, human. The following applies: compound at 25 μM; receptor activated to EC80 with the corresponding agonist. The procedure: as §1, §2
The next experiment deals with hT2R54. Put plainly: hT2R panel inhibition, transient HEK293 G16g44, agonist Ranitidine 5 mM. In kind it is cell-based, human. The following applies: compound at 25 μM. How it is done: as §1, §2
Experiment [1] concerns the target T1, hT2R14 (Homo sapiens (Human), UniProt Q9NYV8). Briefly: hT2R panel inhibition, transient HEK293 G16g44, agonist Aristolochic Acid 2 μM. It is filed as cell-based. The following applies: HEK293, compound at 25 μM. The method, boiled down:
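Each hT2R was transiently transfected into HEK293 cells stably expressing G16g44 and assayed functionally for inhibition of agonist response. Agonists were applied at EC80: andrographolide at 0.5 mM for hT2R8 and aristolochic acid at 2 μM for hT2R14.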

The target of a further experiment is hT2R7 (Homo sapiens (Human), UniProt Q9NYW3). Put plainly: hT2R panel inhibition, transient HEK293 G16g44, agonist Chloroquine pH6.5 10 mM. It is filed as cell-based. The following applies: HEK293, compound at 25 μM; receptor activated to EC80 with the corresponding agonist; read-out: screening result against bitter receptor 7. How it is done:
as §1, §2

The test system of a further experiment is hT2R63. Put plainly: hT2R panel inhibition, transient HEK293 G16g44, agonist Caffeine 1 mM or Andrographolide 100 μM. It is filed as cell-based, human. The note with it: compound at 25 μM; receptor activated to EC80 with the corresponding agonist. The gist of the method: as §3
For another experiment, the target named is hT2R16 (Homo sapiens (Human), UniProt Q9NYV7). Put plainly: hT2R panel inhibition, transient HEK293 G16g44, agonist Salicin 1 mM. The following applies: HEK293, compound at 25 μM; receptor activated to EC80 with the corresponding agonist; read-out: screening result against bitter receptor 16. It is filed as cell-based. The procedure: as §1, §2
Chain of hT2R16 (Q9NYV7 whole entry): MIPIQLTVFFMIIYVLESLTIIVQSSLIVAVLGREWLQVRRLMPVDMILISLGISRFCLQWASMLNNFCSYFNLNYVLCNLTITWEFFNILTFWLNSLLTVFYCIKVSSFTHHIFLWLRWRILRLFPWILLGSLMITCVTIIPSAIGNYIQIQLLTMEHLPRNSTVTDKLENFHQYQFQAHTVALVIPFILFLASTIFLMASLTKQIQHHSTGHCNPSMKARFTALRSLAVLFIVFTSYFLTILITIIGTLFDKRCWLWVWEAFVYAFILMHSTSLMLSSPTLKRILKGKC
Another experiment addresses hT2R71 (Homo sapiens (Human), UniProt P59536). Put plainly: hT2R panel inhibition, transient HEK293 G16g44, agonist Picric Acid 10 μM. It is filed as cell-based. The note with it: HEK293, compound at 25 μM; receptor activated to EC80 with the corresponding agonist; read-out: screening result against bitter receptor 71. The gist of the method: as §3
The target in a further experiment is hT2R3 (Homo sapiens (Human), UniProt Q9NYW6). Briefly: hT2R panel inhibition, transient HEK293 G16g44, agonist Chloroquine pH6.5 50 μM. In kind it is cell-based. The following applies: HEK293, compound at 25 μM; receptor activated to EC80 with the corresponding agonist; read-out: screening result against bitter receptor 3. How it is done:
as §1, §2

In experiment [2] the target is T1, hT2R14. Put plainly: hT2R14 antagonist high-throughput FLIPR assay, stable cell line with G16g44, agonist aristolochic acid. In kind it is cell-based. The method, boiled down:
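HEK293 cells stably expressing hT2R14 with chimeric G16g44 were stimulated with aristolochic acid (3 μM), giving 70-80% of maximal receptor activity. Test compounds were added together with the agonist, and antagonism was read as fluorescent calcium signal on FLIPR.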

The test system of a further experiment is hT2R67. Briefly: hT2R panel inhibition, transient HEK293 G16g44, agonist Andrographolide 5 μM. The following applies: compound at 25 μM; receptor activated to EC80 with the corresponding agonist. It is filed as cell-based, human. How it is done: as §1, §2
A further experiment concerns hT2R65. Put plainly: hT2R panel inhibition, transient HEK293 G16g44, agonist Oleuropein 1 mM. It is filed as cell-based, human. The note with it: compound at 25 μM; receptor activated to EC80 with the corresponding agonist. How it is done:
as §1, §2

Setting [3] is: receptor activated to EC80 with the corresponding agonist, read-out: screening result against bitter receptor 14.

pIC50: −log10 of the molar value. Where two headings read alike, the source gives them in different places.

T1 sequence (Q9NYV8 whole entry): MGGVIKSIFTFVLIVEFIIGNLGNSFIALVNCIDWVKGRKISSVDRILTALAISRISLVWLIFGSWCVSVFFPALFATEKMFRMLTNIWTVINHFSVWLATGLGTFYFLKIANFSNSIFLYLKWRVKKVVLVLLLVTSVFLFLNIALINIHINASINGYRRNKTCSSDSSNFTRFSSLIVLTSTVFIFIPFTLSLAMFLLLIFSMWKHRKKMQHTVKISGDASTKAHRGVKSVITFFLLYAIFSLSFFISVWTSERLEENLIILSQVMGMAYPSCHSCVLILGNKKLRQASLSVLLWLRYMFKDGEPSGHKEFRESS
Chain of hT2R61 (P59537 whole entry): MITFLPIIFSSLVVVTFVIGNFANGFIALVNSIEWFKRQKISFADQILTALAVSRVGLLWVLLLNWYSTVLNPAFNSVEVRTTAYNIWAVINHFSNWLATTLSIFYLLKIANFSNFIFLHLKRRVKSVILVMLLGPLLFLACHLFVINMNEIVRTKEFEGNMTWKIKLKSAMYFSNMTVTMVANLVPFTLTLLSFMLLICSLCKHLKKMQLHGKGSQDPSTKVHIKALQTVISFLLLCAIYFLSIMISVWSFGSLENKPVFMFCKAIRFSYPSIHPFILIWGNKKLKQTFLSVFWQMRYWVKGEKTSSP
Chain of hT2R71 (P59536 whole entry): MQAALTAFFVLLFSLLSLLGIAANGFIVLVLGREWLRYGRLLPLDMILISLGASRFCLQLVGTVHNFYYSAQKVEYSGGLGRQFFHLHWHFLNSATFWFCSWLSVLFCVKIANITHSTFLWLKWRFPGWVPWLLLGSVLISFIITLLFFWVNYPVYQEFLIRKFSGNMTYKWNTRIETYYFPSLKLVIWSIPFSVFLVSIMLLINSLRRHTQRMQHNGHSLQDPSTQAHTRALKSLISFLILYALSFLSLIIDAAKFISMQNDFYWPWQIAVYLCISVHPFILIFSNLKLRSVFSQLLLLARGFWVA
Chain of hT2R7 (Q9NYW3 whole entry): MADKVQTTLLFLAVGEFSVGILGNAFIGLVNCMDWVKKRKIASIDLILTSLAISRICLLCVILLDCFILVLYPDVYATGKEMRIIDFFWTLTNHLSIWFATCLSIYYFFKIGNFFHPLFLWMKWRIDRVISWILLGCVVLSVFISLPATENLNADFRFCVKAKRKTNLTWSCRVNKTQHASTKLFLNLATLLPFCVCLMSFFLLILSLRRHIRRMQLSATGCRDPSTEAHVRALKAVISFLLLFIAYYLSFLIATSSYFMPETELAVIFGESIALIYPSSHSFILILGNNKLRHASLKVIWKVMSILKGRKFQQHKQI
Chain of hT2R3 (Q9NYW6 whole entry): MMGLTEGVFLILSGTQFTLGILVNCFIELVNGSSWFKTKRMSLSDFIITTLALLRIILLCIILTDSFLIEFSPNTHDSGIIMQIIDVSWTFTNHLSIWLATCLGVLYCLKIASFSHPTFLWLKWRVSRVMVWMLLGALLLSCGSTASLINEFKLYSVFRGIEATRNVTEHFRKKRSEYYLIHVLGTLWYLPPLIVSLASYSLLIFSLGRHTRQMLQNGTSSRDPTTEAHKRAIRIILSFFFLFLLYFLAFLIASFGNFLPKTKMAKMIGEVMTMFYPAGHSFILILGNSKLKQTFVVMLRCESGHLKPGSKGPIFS
Chain of hT2R5 (Q9NYW4 whole entry): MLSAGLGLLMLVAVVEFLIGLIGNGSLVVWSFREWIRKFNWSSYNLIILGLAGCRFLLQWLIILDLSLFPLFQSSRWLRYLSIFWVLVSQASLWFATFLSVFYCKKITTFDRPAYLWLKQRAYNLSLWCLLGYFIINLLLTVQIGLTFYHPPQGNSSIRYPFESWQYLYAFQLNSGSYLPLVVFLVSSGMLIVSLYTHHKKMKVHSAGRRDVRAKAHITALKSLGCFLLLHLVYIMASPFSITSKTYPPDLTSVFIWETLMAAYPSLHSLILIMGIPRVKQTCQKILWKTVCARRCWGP

As to `COc1ccc(N(Cc2ccccc2)S(=O)(=O)c2ccc(C(=O)O)cc2)cc1` [Example 5-35, 4-(N-benzyl-N-(4-methoxyphenyl)sulfamoyl)benzoic acid], in the experiment with hT2R55, the “screening result against bitter receptor 55” value was “+++ (60% to 80% inhibition = +++)”. Besides, the inhibition at 25 µM at hT2R61 was greater than 80%; at hT2R5, 20 to 40%; at hT2R64 it was 20 to 40%; at hT2R14 [1] (setting [3]), 20 to 40%; on hT2R7, 20 to 40%; on hT2R16 it was 20 to 40%. The inhibition at 25 µM on hT2R71 lay in the range of 40 to 60%; on hT2R3, 20 to 40%. For the same compound, the “screening result against bitter receptor 44” value in the experiment with hT2R44 was “+ (20% to 40% inhibition = +)”. For the same compound, the “screening result against bitter receptor 54” value in the experiment with hT2R54 (receptor activated to EC80 with the corresponding agonist) is on record as “+ (20% to 40% inhibition = +)”. For the same compound, in the experiment with hT2R63, the “screening result against bitter receptor 63” value is “+++ (60% to 80% inhibition = +++)”.

`COc1ccc(CN(Cc2ccccc2)S(=O)(=O)c2ccc(-c3nn[nH]n3)cc2)cc1` [Example 5-46, N-benzyl-N-(4-methoxybenzyl)-4-(1H-tetrazol-5-yl)benzene-sulfonamide]: the “screening result against bitter receptor 55” value in the experiment on hT2R55 is listed as “+ (20% to 40% inhibition = +)”. Moreover, the inhibition at 25 µM was greater than 80% on hT2R61; greater than 80% on hT2R14 [1] (setting [3]); 20 to 40% on hT2R7; 20 to 40% on hT2R16; 60 to 80% at hT2R71; 20 to 40% on hT2R3. Also, the “screening result against bitter receptor 44” value with hT2R44 is “++ (40% to 60% inhibition = ++)”. In addition, the pIC50 on hT2R14 [2] (read-out: IC50 on hT2R14 bitter receptor) was 5.44. Further, in the experiment with hT2R67, the “screening result against bitter receptor 67” value was “++ (40% to 60% inhibition = ++)”. Moreover, in the experiment on hT2R65, the “screening result against bitter receptor 65” value is on record as “++ (40% to 60% inhibition = ++)”. Besides, the “screening result against bitter receptor 63” value in the experiment with hT2R63 is given as “+++ (60% to 80% inhibition = +++)”.

As to `COc1ccc(CN(Cc2ccc(C)o2)S(=O)(=O)c2ccc(C(=O)O)cc2)cc1` [Example 5-63, 4-(N-(4-methoxybenzyl)-N-((5-methylfuran-2-yl)methyl)sulfamoyl)benzoic acid], in the experiment on hT2R55, the “screening result against bitter receptor 55” value is given as “+++ (60% to 80% inhibition = +++)”. Also, the inhibition at 25 µM was 20 to 40% at hT2R5, 40 to 60% on hT2R64, 20 to 40% on hT2R71 and 20 to 40% on hT2R3. Further, the “screening result against bitter receptor 67” value in the experiment on hT2R67 is listed as “+ (20% to 40% inhibition = +)”. Moreover, in the experiment with hT2R63, the “screening result against bitter receptor 63” value is given as “+++ (60% to 80% inhibition = +++)”.

In the case of `O=C(O)c1ccc(S(=O)(=O)N(Cc2ccccc2)Cc2ccc(O)cc2)cc1` [Example 5-99, 4-(N-benzyl-N-(4-hydroxybenzyl)sulfamoyl)benzoic acid], in the experiment with hT2R55, the “screening result against bitter receptor 55” value is on record as “+ (20% to 40% inhibition = +)”. For the same compound, the inhibition at 25 µM on hT2R61 is greater than 80%; on hT2R64, 60 to 80%; at hT2R14 [1] (setting [3]), greater than 80%; at hT2R7 it was 20 to 40%; at hT2R16, 20 to 40%; on hT2R71, 60 to 80%. In the experiment with hT2R44, the “screening result against bitter receptor 44” value is given as “+++ (60% to 80% inhibition = +++)”. Besides, the negative logarithm of the IC50 (pIC50) at hT2R14 [2] (Table C, read-out: hT2R14 IC50) is 5.28. Moreover, the “screening result against bitter receptor 67” value in the experiment on hT2R67 is on record as “++ (40% to 60% inhibition = ++)”. Besides, the “screening result against bitter receptor 65” value in the experiment on hT2R65 was “++ (40% to 60% inhibition = ++)”. For the same compound, the “screening result against bitter receptor 63” value with hT2R63 is reported as “++++ (80% or greater inhibition = ++++)”.

Take `Cn1c(=O)c2cc(S(=O)(=O)Nc3ccc4c(c3)OCCO4)ccc2n(C)c1=O` [Example 6-6, N-(2,3-dihydrobenzo[b][1,4]dioxin-6-yl)-1,3-dimethyl-2,4-dioxo-1,2,3,4-tetrahydroquinazoline-6-sulfonamide]: the “screening result against bitter receptor 55, printed as a number (meaning not defined)” value with hT2R55 (receptor activated to EC80 with agonist, numeric cell) was found to be 210. Moreover, the “inhibition of bitter receptor 54” value in the experiment with hT2R54 (receptor activated to EC80 with agonist) was “+ (20% to 40% inhibition = +)”. At hT2R14 [2] (Table D, read-out: hT2R14 IC50), the negative-log IC50 (pIC50) was 6.15. On hT2R14 [1] (receptor activated to EC80 with agonist, read-out: inhibition of bitter receptor 14), the inhibition at 25 µM was greater than 80%.
